Test results taken from publication PMC7203682, “Pharmacological Inhibition of MALT1 Protease Leads to a Progressive IPEX-Like Pathology” (Frontiers in Immunology, 2020).
Like-named read-outs stand apart in the source and are kept apart here.

Key:
Foxp3+ Treg cells = assay: Treg frequency and functional markers in mice treated 12 days; type: in vivo, C57BL/6 mice; details: 8 mg/kg BID i.p. or 16 mg/kg QD i.p.
Method: Eight-week-old C57BL/6 mice (Charles River France) were treated from day 0 to day 12, either via p.o. […] (mepazine) dosing. Mepazine acetate (Chembridge, San Diego, CA, United States) was solubilized and dosed in PEG200/water (30/70 v/v). […] Some animals were euthanized at the end of the treatment period for analysis of lymphoid organs, while other animals were kept until day 19 to analyze the recovery of Treg cells after cessation of the treatment. […] Blood samples were collected along the treatment and recovery period to monitor changes in Tregs levels over time. Treg frequencies in blood and spleen as well as the expression of CTLA-4, TNFR2, KLRG1, and CD25 on Tregs was assessed by flow cytometry (see below). All animal studies were performed in accordance with the animal experimentation laws and guidelines laid down by the Swiss Federal and Cantonal Authorities. […] Splenocytes were analyzed at scheduled necropsies. […] CTLA-4 expression was assessed intra- and extracellularly.

[1] = blood compound concentrations in mice; type: in vivo, C57BL/6 mice; details: mouse; for concentration at 1 h: C57BL/6, blood, ip, read-out: [Mepazine] blood at 1h (peak); for [Mepazine] blood at 15h (trough): BQL: below quantification limit
female Lewis rat = details: in vivo, 10 mg/kg
Method: Freund’s incomplete adjuvant (IFA, Difco, Detroit, United States) was mixed with porcine collagen type II (Chondrex, Redmond, United States) using a polytron on ice. The final solution consisted of 200 μg of collagen in 200 μl of IFA. […] of this was injected intradermally (i.d.) into the base of the tail of an isofluorane narcotized female Lewis rat. After 7 days, the isofluorane narcotized animal was boosted i.d. with a fresh batch of the immunization solution in an adjacent site at the base of the tail (100 μg in 100 μl). Paw swelling and body weight were taken three times per week as described below.
There were 10 animals per group for the compound treated groups and n = 9 rats for the vehicle group. […] Hind paws were taken for histological analysis.
There were five animals per group.
All animal studies were performed according to current Swiss animal protection laws, issued by the Cantonal Veterinary Office Basel-Stadt, Switzerland. Body weight of the animals was assessed regularly throughout the study. Mean values of groups were calculated. Scoring of the paw swelling was done on an arbitrary scale of 0–12 per rat, evaluating each hind paw in the front with 0–3 and in the ankle with 0–3, thus obtaining a maximal score of 6 per paw. The paw scores were summed up to obtain a score for each individual animal. The individual sum scores of all the animals were averaged and SEMs were calculated. The scoring system used was: 0 = no detectable sign of inflammation; 1, light swollen region; 2, more obviously swollen region; 3, ankylosis or severely swollen region.
Serum obtained at the end of the study, was diluted 1:10000 and 1: 100000.
Three-μm thick sections were stained with Giemsa and Safranin O (prophylactic setting) or hematoxylin and eosin (therapeutic setting).
Histopathological changes were blindly scored on a scale of 0 (normal) to 3 (severe changes). Following parameters were assessed: inflammatory cell infiltrates, joint damage and proteoglycan loss ([44]).

MALT1 = MALT1 (Canis lupus familiaris, UniProt A0A8I3RR14); assay: cell-based
MALT1, sequence (A0A8I3RR14 1-857): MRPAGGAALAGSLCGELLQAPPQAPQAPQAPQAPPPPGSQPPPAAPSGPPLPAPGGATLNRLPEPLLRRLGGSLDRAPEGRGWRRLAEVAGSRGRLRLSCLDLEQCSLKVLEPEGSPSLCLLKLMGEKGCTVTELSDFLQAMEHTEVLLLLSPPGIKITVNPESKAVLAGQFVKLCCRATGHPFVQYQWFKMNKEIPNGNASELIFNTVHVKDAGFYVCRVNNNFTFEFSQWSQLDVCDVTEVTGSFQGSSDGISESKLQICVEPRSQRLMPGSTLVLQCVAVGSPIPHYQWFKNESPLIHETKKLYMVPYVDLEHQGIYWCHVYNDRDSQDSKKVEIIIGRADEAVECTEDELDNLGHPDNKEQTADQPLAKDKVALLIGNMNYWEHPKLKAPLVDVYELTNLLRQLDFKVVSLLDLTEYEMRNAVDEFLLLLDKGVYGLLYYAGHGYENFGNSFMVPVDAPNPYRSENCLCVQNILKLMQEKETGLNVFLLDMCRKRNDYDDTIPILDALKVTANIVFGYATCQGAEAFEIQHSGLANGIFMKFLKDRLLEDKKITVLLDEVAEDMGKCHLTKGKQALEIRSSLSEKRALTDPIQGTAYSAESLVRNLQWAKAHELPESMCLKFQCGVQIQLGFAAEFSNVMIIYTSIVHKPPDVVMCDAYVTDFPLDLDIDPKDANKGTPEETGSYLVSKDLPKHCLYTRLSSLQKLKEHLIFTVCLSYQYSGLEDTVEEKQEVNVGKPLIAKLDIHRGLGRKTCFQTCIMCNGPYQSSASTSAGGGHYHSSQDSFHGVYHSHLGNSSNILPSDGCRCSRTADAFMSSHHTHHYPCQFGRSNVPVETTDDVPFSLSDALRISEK
Method: Human whole blood was obtained from healthy volunteers by venipuncture at the Novartis Basle Health care unit. Blood was pooled into two 50 ml Falcon tubes and filtered using a 100 μm (or 70 μm)-cell strainer. Serial dilutions of compounds (10 mM DMSO stock) were diluted again 1/10 in X-VIVO medium (Lonza Biosciences) and 500 μl of whole blood was mixed with 55 μl of X-VIVO/compound mixes and pre-incubated for 1 h at 37°C with shaking (∼600 rpm). After the pre-incubation time 200 μl of the blood/compound mixes in duplicates were transferred to a new flat bottom plates and PMA (final: 100 ng/ml)/anti-CD28 (final: 300 ng/ml) solution was added. Incubation was performed overnight at 37°C + 5% CO2. Blood plates were spun for 10 min at 470 g and 100 μl of the resulting serum was analyzed for IL-2 levels using MesoScale Discovery kits (MSD), according to the manufacturer’s protocol. […] Similar protocols were implemented for PBMC and blood from rat and dog species.

| concentration at 1 h ([1]; 8 mg/kg BID i.p.) | concentration at 1 h ([1]; 16 mg/kg QD i.p.) | [Mepazine] blood at 15h (trough) ([1]; 8 mg/kg BID i.p.) | [Mepazine] blood at 15h (trough) ([1]; 16 mg/kg QD i.p.) | SMILES | expression of Treg activation markers (Foxp3+ Treg cells) | frequency of Treg cells (Foxp3+ Treg cells) | histo-pathological score of hind paw: Inflammation (female Lewis rat) | histo-pathological score of hind paw: Joint damage (female Lewis rat) | histo-pathological score of hind paw: Proteoglycan loss (female Lewis rat) | anti-collagen antibody production (female Lewis rat; po) | joint histology scores (female Lewis rat; po) | paw swelling (female Lewis rat; po) | IC50 (MALT1) |
| --- | --- | --- | --- | --- | --- | --- | --- | --- | --- | --- | --- | --- | --- |
| 270 nM | 770 nM | BQL | BQL | CN1CCCC(CN2c3ccccc3Sc3ccccc32)C1 (stereo not shown) [mepazine] | impacted neither | impacted neither |  |  |  |  |  |  |  |
|  |  |  |  | CO[C@@H](C)c1c(NC(=O)Nc2ccnc(C(F)(F)F)c2)cnc2cc(Cl)nn12 [MLT-943] |  |  | 0 | 0 | 0 | suppressed | normalized | fully prevented | 92 nM |
